Earlier results, collected in paper PMC10597649, “Effect of Astragali radix extract on pharmacokinetic behavior of dapagliflozin in healthy and type 2 diabetic rats” (Frontiers in Pharmacology, 2023).

System: P-gp
Set-up: method as in Huang et al., 2012
Conditions: ref Huang et al., 2012; cited from earlier work

CC(=O)O[C@H]1[C@H](O[C@H]2CC[C@]34C[C@]35CC[C@]3(C)[C@@H]([C@@]6(C)CC[C@@H](C(C)(C)O)O6)[C@@H](O)C[C@@]3(C)[C@@H]5C[C@H](O[C@@H]3O[C@H](CO)[C@@H](O)[C@H](O)[C@H]3O)[C@H]4C2(C)C)OC[C@@H](O)[C@@H]1O [Astragaloside II]
P-gp inhibition: potent P-gp inhibitor
